From patent US8492537B2, “Nucleosides for suppressing or reducing the development of resistance in cytostatic therapy” (RESprotect GmbH, priority 2006, dated 2013)

melting point	SMILES
75 to 76 °C	CC(C)[C@H](NC(=O)OC(C)(C)C)C(=O)OC[C@H]1O[C@@H](n2cc(/C=C/Br)c(=O)[nH]c2=O)C[C@@H]1Cl [1.2.2.5, 5′-O—(N-t-butyloxycarbonyl-L-valinoyl)-3′-chloro-2′,3′-dideoxy-5-(E)-bromovinyluridine]
102 to 103 °C	CC(C)[C@H](NC(=O)OC(C)(C)C)C(=O)N[C@H](C(=O)OC[C@H]1O[C@@H](n2cc(/C=C/Br)c(=O)[nH]c2=O)C[C@@H]1Cl)C(C)C [1.2.2.7, 5′-O—(N-t-butyloxycarbonyl-L-valyl-L-valinoyl)-3′-chloro-2′,3′-dideoxy-5-(E)-bromovinyluridine]
95 to 97 °C	CC(C)[C@H](NC(=O)OC(C)(C)C)C(=O)N[C@H](C(=O)OC[C@H]1O[C@@H](n2cc(/C=C/Br)c(=O)[nH]c2=O)C[C@@H]1N=[N+]=[N-])C(C)C [1.2.2.9, 3′-azido-5′-O—(N-t-butyloxycarbonyl-L-valyl-L-valinoyl)-2′,3′-dideoxy-5-(E)-bromovinyluridine]
178 to 180 °C	CC(=O)N[C@H]1C[C@H](n2cc(/C=C/Br)c(=O)[nH]c2=O)O[C@@H]1CBr [1.4.2, 3′-acetamido-5′-bromo-2′,3′,5′-trideoxy-5-(E)-bromovinyluridine]
208 °C	O=c1[nH]c(=O)n([C@H]2C[C@H](O)[C@@H](CF)O2)cc1/C=C/Br [2.1.1, 2′,5′-dideoxy-5′-fluoro-5-(E)-bromovinyluridine]
145 °C	CO[C@H]1C[C@H](n2cc(/C=C/Br)c(=O)[nH]c2=O)O[C@@H]1CCl [2.1.2, 3′-O-methyl-5′-chloro-2′,5′-dideoxy-5-(E)-bromovinyluridine]
95 °C	CO[C@H]1C[C@H](n2cc(/C=C/Br)c(=O)n(C)c2=O)O[C@@H]1CF [2.1.3, 3′-O-methyl-5′-fluoro-2′,5′-dideoxy-3-methyl-5-(E)-bromovinyluridine]
177 °C	CO[C@H]1C[C@H](n2cc(/C=C/Br)c(=O)[nH]c2=O)O[C@@H]1CF [2.1.4, 3′-O-methyl-5′-fluoro-2′,5′-dideoxy-5-(E)-bromovinyluridine]
81 °C	CC(=O)O[C@H]1C[C@H](n2cc(/C=C/Br)c(=O)[nH]c2=O)O[C@@H]1C(O)F (stereo partly shown) [2.2.1, 3′-O-acetyl-5′-fluoro-2′-deoxy-5-(E)-bromovinyluridine]
87 to 88 °C	CCCCOC(=O)N[C@H](C(=O)O[C@H]1C[C@H](n2cc(/C=C/Br)c(=O)[nH]c2=O)O[C@@H]1CCl)C(C)C [2.2.2.5, 3′-O—(N-4-butyloxycarbonyl-L-valinoyl)-5′-chloro-2′,5′-dideoxy-5-(E)-bromovinyluridine]
114 to 116 °C	CC(C)[C@H](NC(=O)OC(C)(C)C)C(=O)N[C@H](C(=O)O[C@H]1C[C@H](n2cc(/C=C/Br)c(=O)[nH]c2=O)O[C@@H]1CCl)C(C)C [2.2.2.7, 3′-O—(N-t-butyloxycarbonyl-L-valyl-L-valinoyl)-5′-chloro-2′,5′-dideoxy-5-(E)-bromovinyluridine]
133 to 135 °C	CC(C)[C@H](NC(=O)OC(C)(C)C)C(=O)N[C@H](C(=O)O[C@H]1C[C@H](n2cc(/C=C/Br)c(=O)[nH]c2=O)O[C@@H]1CN=[N+]=[N-])C(C)C [2.2.2.9, 5′-azido-3′-O—(N-t-butyloxycarbonyl-L-valyl-L-valinoyl)-2′,5′-dideoxy-5-(E)-bromovinyluridine]
201 °C	O=c1[nH]c(=O)n([C@@H]2O[C@H](CBr)[C@@H](O)[C@H]2O)cc1/C=C/Br [2.3, 5′-bromo-5′-deoxy-5-(E)-bromovinyluridine]
177 to 180 °C	O=c1[nH]c(=O)n([C@H]2C[C@H](F)[C@@H](CF)O2)cc1/C=C/Br [3.1, 3′,5′-difluoro-2′,3′,5′-trideoxy-5-(E)-bromovinyluridine]
203 °C	O=c1[nH]c(=O)n([C@H]2C[C@H](F)[C@@H](CCl)O2)cc1/C=C/Br [3.2, 3′-fluoro-5′-chloro-2′,3′,5′-trideoxy-5-(E)-bromovinyluridine]
184 °C	O=c1[nH]c(=O)n([C@H]2C[C@H](Cl)[C@@H](CCl)O2)cc1/C=C/Br [3.3, 3′,5′-dichloro-2′,3′,5′-trideoxy-5-(E)-bromovinyluridine]
149 °C	O=c1[nH]c(=O)n([C@H]2C[C@H](Cl)[C@@H](CBr)O2)cc1/C=C/Br [3.5, 3′-chloro-5′-bromo-2′,3′,5′-trideoxy-5-(E)-bromovinyluridine]
58 to 60 °C	[N-]=[N+]=NC[C@H]1O[C@@H](n2cc(/C=C/Br)c(=O)[nH]c2=O)C[C@@H]1Cl [3.5.3, 5′-azido-3′-chloro-2′,3′,5′-trideoxy-5-(E)-bromovinyluridine]
124 to 125 °C	[N-]=[N+]=N[C@H]1C[C@H](n2cc(/C=C/Br)c(=O)[nH]c2=O)O[C@@H]1CCl [3.5.4, 3′-azido-5′-chloro-2′,3′,5′-trideoxy-5-(E)-bromovinyluridine]
153 °C	O=c1[nH]c(=O)n([C@H]2C[C@H](Br)[C@@H](CBr)O2)cc1/C=C/Br [3.6, 3′,5′-dibromo-2′,3′,5′-trideoxy-5-(E)-bromovinyluridine]
> 250 °C (dec.)	O=c1[nH]c(=O)n([C@H]2C=C[C@@H](CO)O2)cc1/C=C/Br [4.1, 2′,3′-didehydro-2′,3′-dideoxy-5-(E)-bromovinyluridine]
> 150 °C	O=c1[nH]c(=O)n([C@H]2C=C[C@@H](CBr)O2)cc1/C=C/Br [4.2, 2′,3′-didehydro-2′,3′,5′-trideoxy-5′-bromo-5-(E)-bromovinyluridine]
182 °C	O=c1[nH]c(=O)n([C@@H]2O[C@H](CO)[C@@H](O)[C@H]2F)cc1/C=C/Br [5.1, 2′-fluoro-2′-deoxy-5-(E)-bromovinyluridine]
223 °C	O=c1[nH]c(=O)n([C@@H]2O[C@H](CBr)[C@@H](O)[C@H]2F)cc1/C=C/Br [5.2, 2′-fluoro-5′-bromo-2′,5′-dideoxy-5-(E)-bromovinyluridine]
174 °C (dec.)	C[C@H]1O[C@@H](n2cc(/C=C/Br)c(=O)[nH]c2=O)C[C@@H]1O [8.1, 2′,5′-dideoxy-5-(E)-bromovinyluridine]
134 °C	C[C@H]1O[C@@H](n2cc(/C=C/Br)c(=O)[nH]c2=O)C[C@@H]1Cl [8.2, 3′-chloro-2′,3′,5′-trideoxy-5-(E)-bromovinyluridine]
96 °C	CC(=O)O[C@H]1C[C@H](n2cc(/C=C/Br)c(=O)[nH]c2=O)O[C@@H]1CC#N [10.3, 3′-O-acetyl-5′-cyano-2′,5′-dideoxy-5-(E)-bromovinyluridine]
177 °C (dec.)	N#CC[C@H]1O[C@@H](n2cc(/C=C/Br)c(=O)[nH]c2=O)C[C@@H]1O [compound 10, 5′-cyano-2′,5′-dideoxy-5-(E)-bromovinyluridine]
